Reference: patent publication US20230348401A1, “Inhibitors of Glucose-6-phosphate Dehydrogenase and Uses Thereof” (The Trustees of Princeton University, priority 2020, published 2023)

Columns and labels:
[1] = system: CD4+ regulatory T cells (Treg); assay: Treg assays; format: cell-based; conditions: CD3/CD28 in the presence of TGF-β
Protocol: Spleen and peripheral lymph nodes were harvested and processed to single cell suspensions of lymphocytes. Red blood cells were removed with hypotonic lysis. We used magnetic beads (Miltenyi Biotec, San Diego, CA) for isolation of Tconv (CD4^+CD25^-), Treg (CD4^+CD25^+), and antigen presenting cells (CD90.2^-). For cell culture medium, we used RPMI 1640 medium supplemented with 10% fetal bovine serum (FBS), penicillin (100 U/mL), streptomycin (100 µg/mL), and 55 µM β-mercaptoethanol Treg suppression and iTreg polarization were conducted as previously reported. For Treg suppression assays, Tconv were purified and stimulated with irradiated antigen presenting cells plus CD3ε mAb (1 µg/mL, BD Pharmingen). To assess proliferation, Tconv cells were labeled with carboxyfluorescein succinimidyl ester (CFSE), and Treg cells with CellTrace Violet. After 72 h, proliferation of Tconv and Treg cells was determined by flow cytometric analysis of CFSE and CellTrace Violet dilution, respectively. For conversion to Foxp3^+ Tregs, Tconv cells were incubated for 3-5 days with CD3ε/CD28 mAb beads, plus TGF-β (3 ng/mL) and IL-2 (25 U/mL), and analyzed by flow cytometry for Foxp3+ iTreg. Flow cytometry data was captured using Cytoflex (Beckman Coulter, Brea, CA) and analyzed using the FlowJo 10.2 software.

naïve CD8+ T cells = assay: T cell activation, proliferation and viability (flow cytometry); format: cell-based, mouse
Protocol: The functional consequences of oxPPP inhibition were next explored using G6PDi-1 in T cells. To test the effect of G6PDi-1 on activation and proliferation, naïve CD8+ T cells were isolated from spleen and activated in vitro with plate-bound αCD3/αCD28 and IL-2. Activation was evaluated by flow cytometry analysis of surface markers CD69 (levels rapidly rise upon activation) and CD25 (usually peaking at 24-48 hours post-activation), and cell size, which increases over the first 24 hours post-activation. To quantify proliferation, naïve cells were stained with […] (CTV) and dye dilution was measured by flow cytometry at day 4 post-activation.
To analyze cell surface markers expression, cells were collected, washed with PBS and stained with the viability dye Live/Dead Aqua. Cells were then washed with staining buffer and stained for surface markers: CD4 (APC-Cy7, clone RM4-5,), CD8a (PerCP-Cy5.5, clone 53-6.7), CD25 (APC, clone PC61), CD44 (PE-Cy7, clone IM7), CD62L (PE, clone MEL-14) CD69 (FITC, clone H1.2F3), for T cells; CD11b (APC, clone M1/70 and F4/80 (FITC, clone BM8) for macrophages.
To analyze proliferation, naïve CD8 T cells were stained with CTV dye and either maintained in a naïve state with IL7 or stimulated with αCD3/αCD28 + recombinant IL-2 in the presence of increasing concentrations of G6PDi-1. Cells were refed at days 2 and 3 post-stimulation, and proliferation was measured at day 4 post-activation. Cells were collected, washed with staining buffer and stained with the viability dye propidium iodide.

G6PD = G6PD (Homo sapiens, UniProt P11413); assay: 2H transfer from 1-2H-glucose to NADPH active hydride and C16:0 in HCT116 cells; format: cell-based; set-up: endogenous in cells; host or cells: HCT116; conditions: HCT116 cells
G6PD, sequence (P11413 whole entry): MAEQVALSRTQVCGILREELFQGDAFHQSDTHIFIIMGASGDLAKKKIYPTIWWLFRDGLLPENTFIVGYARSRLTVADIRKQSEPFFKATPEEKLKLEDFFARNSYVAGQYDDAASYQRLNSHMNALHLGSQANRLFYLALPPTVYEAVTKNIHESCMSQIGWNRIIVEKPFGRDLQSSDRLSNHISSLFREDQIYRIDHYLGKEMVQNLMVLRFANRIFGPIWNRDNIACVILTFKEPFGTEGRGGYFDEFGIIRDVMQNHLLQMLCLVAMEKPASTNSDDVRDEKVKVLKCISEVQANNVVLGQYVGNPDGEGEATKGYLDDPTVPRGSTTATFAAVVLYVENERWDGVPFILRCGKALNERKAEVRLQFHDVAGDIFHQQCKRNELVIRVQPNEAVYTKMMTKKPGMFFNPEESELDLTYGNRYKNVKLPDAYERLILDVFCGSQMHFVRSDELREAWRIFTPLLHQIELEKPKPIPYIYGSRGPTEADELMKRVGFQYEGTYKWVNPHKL
Excerpt: Direct Monitoring of NADPH Produced by the G6PD Reaction. […] NADPH production is compartmentalized, and occurs through reduction of its redox partner NADP^+. G6PD is one of the main enzymes that generates NADPH, and catalyzes the transfer of electrons (in the form of hydride) from glucose-6-phosphate to NADP^+. By installing a deuterium at the “one” position of glucose (1-^2H-glucose), the transfer of that deuterium to the active hydride of NADPH via glucose-6-phosphate can be specifically monitored. Also, a major use of cytosolic NADPH is fat synthesis. Transfer of ^2H from glucose via NADPH into free palmitate (C16:0) requires two NADPH per two-carbon unit addition during its synthesis.
Next, G6PD mediated hydride transfer to NADPH was directly monitored. Specifically, transfer of deuterium from 1-^2H-glucose, via glucose-6-phosphate, to the NADPH’s active hydride was monitored (FIG. 1B). […] The impacted step was G6PD, as no change in substrate (G6P) labeling was observed (FIG. 1E). A major use of cytosolic NADPH is fat synthesis. Transfer of ^2H from glucose via NADPH into palmitate (C16:0), which requires two NADPH per 2-carbon unit addition during its synthesis, was quantified (FIG. 1B).
For all experiments involving stable isotope tracers (e.g., 1-^2H-glucose), the isotope tracer nutrient was substituted for unlabeled nutrient at the same concentration normally found in the base media for a given cell type (e.g., DMEM for HCT116, RPMI for T cells, etc.). In addition, dialyzed FBS was used as a supplement in place of FBS.
Cytosolic NADPH sources were traced, and redox active hydride labeling was calculated, using a previously described strategy. 1-^2H-glucose (which directly traces G6PD) or 3-^2H-glucose (which directly traces PGD) were used for tracing oxPPP contribution to NADPH; 4-^2H-glucose for ME1; [2,3,3,4,4-^2H5]-glutamine, for both ME1 and IDH1; and D2O, to account for solvent exchange.
For analysis of intracellular metabolites by LC-MS, adherent cell lines were plated and grown to 80% confluency in 6-well plates. At the start of an experiment, the appropriate media was added to cells, which included isotope tracers and/or chemical inhibitors as described. Cells were incubated at 37° C. at 5% CO2 for 2 hours (unless otherwise noted). For all experiments involving small molecule agents, DMSO concentrations were <0.2%. After 2 hours, media was removed by aspiration and metabolome extraction was performed (without any wash steps) by the addition of 800 µL of ice cold solvent (40:40:20 acetonitrile:methanol:water + 0.5% formic acid). After a 1-minute incubation on ice, the extract was neutralized by the addition of NH4HCO3 (15% w/v). The samples were incubated at -20° C. for approximately 30 minutes, at which point the wells were scraped and the extract transferred to Eppendorf tubes and centrifuged (15 minutes, 16000 rpm, 4° C.). The resulting supernatant was frozen on dry ice and kept at -80° C. until LC-MS analysis.

## N#Cc1cc(Nc2ncc3c(n2)CCCCC3=O)cs1 [Compound 2, 4-([5-oxo-6H,7H,8H,9H-cyclohepta[d]pyrimidin-2-yl]amino)thiophene-2-carbonitrile]
[1]
  formation and proliferation of Foxp3+ cells: unaffected
naïve CD8+ T cells; CD4+ T cells
  proliferation of CD4+ T cells: minimal effect
naïve CD8+ T cells; CD8+ T cells
  viability: minimal effect
naïve CD8+ T cells; CD8+ T cells, day 4 post-activation
  activation-dependent proliferation: minimal effect
naïve CD8+ T cells; CD8+ T cells, αCD3/αCD28 and IL-2
  upregulation of activation markers and activation-dependent increase in cell size: did not alter
G6PD; dose-response
  2H transfer from 1-2H-glucose to downstream product C16:0: dose-dependent decrease
G6PD; read-out: IC50, decrease in 2H transfer from 1-2H-glucose to NADPH's active hydride
  IC50: ~31 µM
